Data published in US20150140020A1, “PHARMACEUTICAL COMPOSITION FOR TREATING ADVERSE REACTIONS DUE TO ADMINISTRATION OF SPIEGELMERS” (Freie Universitaet Berlin, priority 2009, published 2015).
[L-RNA-N] = L-ribonucleotide (mirror-image RNA) (N: the base); {FAM} = fluorescein label

Experiments:
Assay type in all cases: biochemical
[1] = tested on: D-target (Seq-ID 1 RNA with D-nucleotides); assay: Cleavage assay: D-target with L-ribozyme
Method: (§1) The activities of L-ribozymes and D-ribozymes were measured in various conditions. The basic conditions were as follows. […] in 50 mM Tris-HCl buffer, pH 7.5, at 20° C. for 2 hours (ribozymes/target ratio therefore 10:1, 1:1 and 1:10). Before the reaction, target RNA and ribozyme were denatured for 2 minutes at 70° C. and cooled slowly (1° C./min) in the heating unit to 25° C. The influence of the Mg^2+ ions at concentration from 0.1 to 25 mM was investigated. Cleavage products were separated on 20% polyacrylamide gel electrophoresis in the presence of 8 M urea in 0.09 M Tris-borate buffer, pH 8.3. The fluorescence was analyzed on Phosphoimager Fuji Film FLA 5100. The data were obtained with the program Fuji Analysis Program. Diagrams were prepared with Excel.
(§2) The following were prepared as target sequences by way of contract synthesis by the company ChemGenes Corporation, Wilmington, USA: • Seq-ID 1: 5′-FAM-ACAGUCGGUCGCC-3′ (RNA, both with D-nucleotides and with L-nucleotides) and • Seq-ID 2: 5′-FAM-ACAGTCGGTCGCC-3′ (DNA, both with D-nucleotides and with L-nucleotides).
(§3) All synthesis products were labeled with fluorescein at the 5′-end.
C is the control (L-target+L-ribozyme), tracks 1 to 5 are the various MgCl2 concentrations given in the diagram (0-25 mM) for target without ribozyme, tracks 6 to 9 0.2 μM target with 2 μM ribozyme.

[2] = tested on: L-target (Seq-ID 1 RNA with L-nucleotides); assay: Cleavage assay: L-target with L-ribozyme
Method: as §1, §2, §3

[3] = tested on: L-target; assay: Cleavage of L-target by L-ribozyme in human serum; conditions: FIG. 12; conditions of human serum
[4] = tested on: L-target (Seq-ID 1 RNA with L-nucleotides); assay: Cleavage assay: L-target with D-ribozyme; conditions: FIG. 2; MgCl2 0-25 mM; 0.2 μM target with 2 μM ribozyme
Method: as §1, §2
All synthesis products were labeled with fluorescein at the 5′-end. […]

[5] = tested on: D-target (Seq-ID 1 RNA with D-nucleotides); assay: Cleavage assay: D-target with D-ribozyme; conditions: FIG. 4B; MgCl2 1-25 mM; 10-fold ribozyme excess
Method: as §1, §2, §3

Row | Substance | cleavage of D-target by L-ribozyme ([1]; FIG. 2, MgCl2 0-25 mM, 0.2 μM target with 2 μM ribozyme) | proportion of cleavage products of the D-target by L-ribozyme as a function of MgCl2 concentration ([1]; FIG. 2C, increasing Mg concentration) | proportion of cleavage products of the D-target by L-ribozyme over time ([1]; FIG. 3, 10 mM MgCl2, times 0 to 256 min, compared with L-target/D-ribozyme) | proportion of cleavage products of L-target with L-ribozyme as a function of MgCl2 concentration ([2]; FIG. 4B, MgCl2 1-25 mM, 10-fold ribozyme excess) | cleavage of L-target by L-ribozyme ([2]; FIGS. 4 to 11, all usual conditions (0.1-25 mM MgCl2, ribozyme excess to deficit)) | turnover rates of L-ribozyme with L-target ([2]; FIGS. 4 to 11, relative to D-ribozyme with D-target) | cleavage of L-target by L-ribozyme in human serum [3] | cleavage of L-target by D-ribozyme [4] | proportion of cleavage products of D-target with D-ribozyme as a function of MgCl2 concentration [5]
1 | 5′-FAM-GGCGACCCUGAUGAGGCCGAAAGGCCGAAACUGU-3′ (all [L-RNA-N], 5' {FAM}, backbone not given here) [L-ribozyme] | a notable reaction certainly occurs | increases with increasing Mg concentration | increases with time | increases with increasing Mg concentration | effectively cuts | at least correspond to those of a D-ribozyme with a D-target | functions effectively | – | –
2 | 5′-FAM-GGCGACCCUGAUGAGGCCGAAAGGCCGAAACUGU-3′ (RNA, 5' {FAM}, backbone not given here) [D-ribozyme] | – | – | – | – | – | – | – | does not cleave | increases with increasing Mg concentration
